Measurements reported in patent US20260132413A1, “AROGENATE DEHYDROGENASE POLYNUCLEOTIDES, POLYPEPTIDES AND METHODS OF USING THE SAME” (Wisconsin Alumni Research Foundation, priority 2017, published 2026).
Entries after “also recorded” stand apart in the source; their conditions may differ.

How the values were obtained:
[1] = tested on: BvADHα; assay: Tyr/effector sensitivity of ADH activity of purified recombinant enzyme; format: biochemical, Beta vulgaris; conditions: for effect of effector on ADH activity: effector at 1 mM
Procedure: (§1) […]. The production of reduced cofactor (NADPH) was monitored at 340 nm using a spectrophotometer every two minutes for 10 min. In addition, other effectors (L-Phe, L-Trp, and betanin) were used to test possible inhibition of the enzyme ADH activity at a final concentration of 1 mM. All of the reactions were performed under non-saturated condition, where activity increased linearly depending on reaction times and enzyme concentrations.

[2] = tested on: BvADHβ; assay: as above; format: biochemical, Beta vulgaris; conditions: for effect of effector on ADH activity: effector at 1 mM; for inhibition of ADH activity: GST-tagged BvADHβ
Procedure: as §1

[3] = molecular target: T1, AtADH2 (Arabidopsis thaliana, UniProt Q9LMR3); assay: Effector sensitivity of ADH activity of purified recombinant enzyme; format: biochemical; conditions: effector at 1 mM
T1 construct: made in house; host or cells: E. coli Rosetta-2 (pGEX-2T)
T1 sequence (Q9LMR3 37-358): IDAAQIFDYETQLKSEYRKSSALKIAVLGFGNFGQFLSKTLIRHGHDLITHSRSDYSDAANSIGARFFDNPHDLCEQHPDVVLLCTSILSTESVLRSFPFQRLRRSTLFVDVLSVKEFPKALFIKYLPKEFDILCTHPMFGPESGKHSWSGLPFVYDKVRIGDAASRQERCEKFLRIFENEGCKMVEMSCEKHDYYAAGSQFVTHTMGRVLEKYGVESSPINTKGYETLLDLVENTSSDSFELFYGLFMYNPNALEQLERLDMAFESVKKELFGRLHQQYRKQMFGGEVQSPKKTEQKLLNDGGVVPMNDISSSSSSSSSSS
Procedure: as §1

[4] = tested on: ADH activity of spinach leaf plastid extract; assay: Tyr sensitivity of ADH activity from plant tissue extracts; format: biochemical, Spinach oleracea; conditions: 1 mM arogenate, 1 mM NADP+; for inhibition (%): 0.5 mM effector vs 0 mM, 2 hr
Procedure: (§2) Spinach oleracea seeds (HighMowing, Wolcott, VT) and pink Dianthus barbatus (BloomIQ, Lansing, MI) seedlings were purchased from a nursery and were grown together with Arabidopsis thaliana (ecotype Columbia) in 22° C., 60% humidity, and 12/12 h light cycle growth chamber. Leaves of spinach and Arabidopsis seedlings were harvested at 3-week-old, and Dianthus barbatus leaves were harvested at 6-week-old. The crude extracts of Arabidopsis or Dianthus barbatus were prepared from ˜1 g leaf tissues according to Aryal et al. (2014). For spinach, ˜10 g leaf tissues were used to isolate the plastids according to Aryal et al. (2014) in order to avoid the undesired cytosolic polyphenol oxidase activity. Crude or plastid fractions were desalted by Sephadex G50 column to obtain protein extracts, and protein concentration of all biological replicates were adjusted to 0.06, 0.85, and 0.6 mg/mL for spinach, Dianthus barbatus, and Arabidopsis extracts, respectively. […] The reaction was stopped by adding 20 μL methanol containing 10 μM norvaline as an internal standard. Respective boiled protein extracts were used as negative controls. […]

[5] = tested on: ADH activity of Dianthus barbatus leaf crude extract; assay: as above; format: biochemical; conditions: 1 mM arogenate, 1 mM NADP+; for inhibition (%): 0.5 mM effector vs 0 mM, 2 hr
Procedure: as §2

[6] = tested on: ADH activity of Arabidopsis leaf crude extract; assay: as above; format: biochemical, Arabidopsis thaliana; conditions: 1 mM arogenate, 1 mM NADP+; for inhibition (%): 0.5 mM effector vs 0 mM, 2 hr
Procedure: as §2

[7] = tested on: NaADHβ; assay: Tyr sensitivity of ADH activity of purified recombinant enzyme; format: biochemical, Nepenthes ventricosa x alata
Procedure: as §1

[8] = tested on: SoADHα; assay: as above; format: biochemical, Spinacia oleracea
Procedure: as §1

[9] = 0.5 mM 3-fluoro-Tyr, 2 hr incubation

For `O=C(O)C1=C/C(=C/C=[N+]2/c3cc(O)c(OC4OC(CO)[C@@H](O)C(O)C4O)cc3CC2C(=O)[O-])CC(C(=O)O)N1` (stereo in doubt) [betanin], the “effect of effector on ADH activity” value [1] was “did not significantly reduce; also recorded: not inhibited”, the “effect of effector on ADH activity” value [2] was “did not significantly reduce; also recorded: not inhibited” and the “effect of effector on ADH activity” value [3] was “did not significantly reduce”.
With `NC(Cc1ccc(O)c(F)c1)C(=O)O` (centres unmarked) [3-fluoro-Tyr] the ADH activity [4, 9] was 52.7 ± 1.9 nmol/mg protein, the “inhibition (%)” value [4] was 20.7% and the ADH activity [5, 9] was 0.9 ± 0.2 nmol/mg protein. For the same compound, the “inhibition (%)” value [5] was 95.0%, the ADH activity [6, 9] was 7.8 ± 0.5 nmol/mg protein and the “inhibition (%)” value [6] was 91.6%.
`N[C@@H](Cc1ccccc1)C(=O)O` [Phe, L-phenylalanine] was tested, and the “effect of effector on ADH activity” value [1] was “did not significantly reduce”, the “effect of effector on ADH activity” value ([1]; listed as phenylalanine) was “not inhibited” and the “effect of effector on ADH activity” value [2] was “did not significantly reduce”. For the same compound, the “effect of effector on ADH activity” value ([2]; listed as phenylalanine) was “not inhibited” and the “effect of effector on ADH activity” value [3] was “did not significantly reduce”.
With `N[C@@H](Cc1ccc(O)cc1)C(=O)O` [Tyr, L-Tyrosine] the “inhibition of ADH activity by Tyr” value [7] was “strongly inhibited”, the “inhibition (%)” value [4] was roughly 21% and the “inhibition (%)” value [5] was 92-95%. For the same compound, the “Tyr sensitivity of ADH activity” value [8] was “reduced Tyr sensitivity”, the “reduction of ADH activity” value ([1]; 1 mM Tyr, GST-tagged BvADHα) was “half” and the “sensitivity to Tyr” value ([1]; His-tagged BvADHα, compared with AtADH2) was “much less sensitivity to Tyr than AtADH2”. The “inhibition of ADH activity” value ([2]; 100 μM Tyr) was 80%, the “inhibition of ADH activity” value ([2]; 1 mM Tyr) was 100% and the “inhibition (%)” value [6] was 92-95%.
In the case of `N[C@@H](Cc1c[nH]c2ccccc12)C(=O)O` [tryptophan, L-tryptophan], the “effect of effector on ADH activity” value [1] was “did not significantly reduce; also recorded: not inhibited”, the “effect of effector on ADH activity” value [2] was “did not significantly reduce; also recorded: not inhibited” and the “effect of effector on ADH activity” value [3] was “did not significantly reduce”.
